Values quoted from earlier work in patent US10960082B2, “Tridentate connexon and use thereof” (NEWBIO THERAPEUTICS, INC., priority 2013, dated 2021).
pIC50: −log10 of the molar value.

Tested on: human carcinoma lines

- pIC50: 6.70 to 7.00
Structure (SMILES): COc1cccc2c1C(=O)c1c(O)c3c(c(O)c1C2=O)C[C@@](O)(C(=O)CO)C[C@@H]3O[C@H]1C[C@H](N)[C@H](O)[C@H](C)O1 [doxorubicin]
